Data published in patent US20250295657A1, “Methods and Compositions for Treatment of Inflammation and Inflammatory Conditions” (University of Pittsburgh - Of the Commonwealth System of …, priority 2022, published 2025).

Experiments:
VCAM1 = VCAM1 expression by RT-qPCR and immunoblot in PAECs; type: cell-based, human
Method: (§1) RNA extraction and quantitative polymerase chain reaction: Cells were lysed in QIAzol Lysis Reagent (Qiagen; 79306), and RNA was extracted using the Rnaeasy Kit (Qiagen; 74004). Complementary DNA was synthesized using the High-Capacity cDNA Reverse Transcription Kit (ThermoFisher; 4368813). Quantitative real-time PCR (RT-qPCR) was performed on an Applied Biosystems QuantStudio 6 Flex Real-Time PCR instrument.
(§2) Target gene expression was normalized to a housekeeping gene (i.e., ACTB) and fold change was calculated using the […] method. TaqMan™ Universal PCR Master Mix (ThermoFisher; 4305719) was used with TaqMan primers (Table 1). PowerUp™ SYBR^TM Green Master Mix (ThermoFisher; A25742) was used with custom designed primers (Table 2).
Protein extraction and immunoblotting: Cells were rinsed two times with PBS before collection in RIPA buffer containing protease and phosphatase inhibitors. Protein concentration was determined using the Pierce™ BCA Protein Assay Kit (ThermoFisher; 23225). Protein lysates were separated using 4-15% Mini-PROTEAN® TGX™ Precast Protein Gels (Bio-Rad Laboratories; 4561086) and subsequently transferred onto a PVDF membrane. Membranes were blocked with 5% BSA in Tris-buffered saline with 0.1% Tween 20 (TBST) for one hour at room temperature. Primary antibodies were subsequently added and incubated at 4° C. overnight (Table 3). The next day blots were washed three times for 10 minutes each with TBST. Blots were then incubated with the appropriate secondary antibody coupled to HRP for one hour at room temperature. After another round of TBST washing, blots were visualized using Pierce ECL reagents and images were captured using the BioRad ChemiDoc XRS+.
Application of oxysterols and bile acids: Oxysterols and bile acids were applied to human PAECs in 0.1% FBS, cell-specific media. 25-hydroxycholesterol and 7HOCA were dissolved in 100% ethanol and applied to cells at a concentration of 25 μM or 50 μM for 24 hours, respectively.

human PAECs = test: Leukocyte and monocyte adhesion to an endothelial monolayer; type: cell-based
Method: Leukocyte and monocyte adhesion assays: Immune activation of the endothelium was assessed by measuring the adhesion of immune cells to an endothelial monolayer. Human PAECs were cultured until a complete monolayer was formed. Immune cells were stained with either CellTrace™ Blue or CFSE (ThermoFisher; Blue, C34568; CFSE, C34554) per the manufacturer's protocol. Between […] stained immune cells were added to each well of a six-well plate and allowed to incubate for 24 hours. Wells were then rinsed two times with PBS and subsequently fixed with 4% PFA for 15 minutes at room temperature. After fixation, the cells were rinsed once more with PBS. Fluorescent images were acquired at 4× magnification for each well. Immune cell number per image was quantified using Fiji. For the leukocyte adhesion assay, HuT 78 cutaneous T lymphocytes were used (ATCC). For the monocyte adhesion assay, THP-1 peripheral blood monocytes were used (ATCC).

[1] = tested on: chronically hypoxic mouse model; settings: 10 mg/kg orotracheal, four weeks hypoxia
[2] = biological target: ATP6V1B2-NCOA7 interactions (Homo sapiens, UniProt Q8NI08); test: Proximity ligation assay of ATP6V1B2-NCOA7 interactions in human PAECs; type: cell-based; settings: 958ami versus DMSO
Method: Proximity ligation assay: Direct interaction of NCOA7 with the V-ATPase subunit ATP6V1B2 was assessed using the Duolink® Proximity Ligation Assay (Millipore Sigma; DU092102). Human PAECs were plated in a Nunc™ Lab-Tek™ II Chamber Slide™ System (20,000 per well; ThermoFisher; 154453) and then fixed with 4% paraformaldehyde for 15 minutes. After permeabilization and blocking per the manufacturer's protocol, wells were incubated with either mouse anti-NCOA7 antibody (Santa Cruz Biotechnology; sc-393427), rabbit anti-ATP6V1B2 antibody (abcam; ab73404), both antibodies, or neither antibodies overnight at 4° C. (Table 3). Cells were then incubated with the PLUS and MINUS probes for one hour, ligated for 30 minutes, and amplified for 100 minutes at 37° C. Slides were then mounted with ProLong™ Gold Antifade Mountant with DAPI (ThermoFisher; P36935). Images were acquired on a Nikon A1 Confocal Microscope at the Center for Biologic Imaging at the University of Pittsburgh.

CH25H = CH25H expression via RT-qPCR in PAECs under IL-1β; type: cell-based, human
Method: as §1, §2

[3] = tested on: BA.2 spike pseudotyped virus; type: cell-based
[4] = tested on: monocrotaline PAH rat model; settings: 7.5 mg/kg i.p. for 10 days
Klebsiella pneumoniae = test: Mice infected with Klebsiella pneumoniae, acute lung injury; type: in vivo, mouse; settings: 5 mg/kg IP daily for 3 days
Method: Mice were infected with Klebsiella pneumoniae. […] (FIG. 23 (A, B)) Representative images were prepared of lung tissue sections stained with H&E after 48 hours of intratracheal infection with K. pneumoniae in mice treated with DMSO compared to 958 (5 mg/kg IP dosing daily for 3 days).

coronavirus = settings: mouse, in vivo
NCOA7 [5] = biological target: T1, NCOA7 (Homo sapiens, UniProt Q8NI08); test: Initial experimental validation of top scoring virtual screening compounds; settings: preliminary data
T1 sequence (Q8NI08 1-942): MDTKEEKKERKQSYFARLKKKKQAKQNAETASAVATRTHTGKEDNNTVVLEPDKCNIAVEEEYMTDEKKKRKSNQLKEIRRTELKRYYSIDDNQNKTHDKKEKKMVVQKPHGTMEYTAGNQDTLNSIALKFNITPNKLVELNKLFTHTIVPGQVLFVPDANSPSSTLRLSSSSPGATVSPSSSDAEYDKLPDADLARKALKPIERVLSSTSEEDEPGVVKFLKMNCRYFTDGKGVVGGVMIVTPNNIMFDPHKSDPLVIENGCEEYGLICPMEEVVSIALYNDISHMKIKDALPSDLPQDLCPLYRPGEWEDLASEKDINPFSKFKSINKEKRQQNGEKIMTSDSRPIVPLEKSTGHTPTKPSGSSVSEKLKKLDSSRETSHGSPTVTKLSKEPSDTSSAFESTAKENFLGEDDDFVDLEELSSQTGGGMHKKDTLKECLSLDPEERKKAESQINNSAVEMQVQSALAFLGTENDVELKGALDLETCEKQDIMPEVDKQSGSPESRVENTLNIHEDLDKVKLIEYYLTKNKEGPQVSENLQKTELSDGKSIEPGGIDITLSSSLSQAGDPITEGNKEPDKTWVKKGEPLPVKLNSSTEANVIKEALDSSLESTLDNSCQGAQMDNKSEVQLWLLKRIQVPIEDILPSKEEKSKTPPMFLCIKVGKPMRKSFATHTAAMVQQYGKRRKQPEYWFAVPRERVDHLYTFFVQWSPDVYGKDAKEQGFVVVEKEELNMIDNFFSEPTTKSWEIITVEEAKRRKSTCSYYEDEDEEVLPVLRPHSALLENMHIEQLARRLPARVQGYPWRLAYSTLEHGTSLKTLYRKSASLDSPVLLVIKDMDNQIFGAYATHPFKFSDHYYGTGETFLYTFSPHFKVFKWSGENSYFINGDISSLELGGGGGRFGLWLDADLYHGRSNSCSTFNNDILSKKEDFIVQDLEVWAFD
Source text: Pharmacophore modeling: Using Pharmmaker, we identified the residues involved in high affinity interactions with each molecular probe type. The residue-probe interactions were subsequently rank-ordered based on their frequency of occurrence at the druggable hot spots in multiple runs. […] The pharmacophore model contained a hydrogen bond donor and a hydrophobic feature at the isopropylamine site and hydrophobic and aromatic rings at the two benzene sites. The pharmacophore model was then screened against the ZINC and MolPort libraries using Pharmit. The MolPort library contains 67,033,884 conformers corresponding to 4,848,718 compounds, and the ZINC library contains 122,276,899 conformers of 13,127,550 compounds. Among top-scoring compounds, MolPort-004-267-958 was selected for further refinement after initial experimental validation.

NCOA7 [6] = test: IL-1β-mediated upregulation of NCOA7 in ECs; type: cell-based; settings: inhibition of STAT1/2 signaling
[7] = 25 μM for 24 hours versus ethanol

Chain of ATP6V1B2-NCOA7 interactions (P21281 whole entry partner, one chain of several): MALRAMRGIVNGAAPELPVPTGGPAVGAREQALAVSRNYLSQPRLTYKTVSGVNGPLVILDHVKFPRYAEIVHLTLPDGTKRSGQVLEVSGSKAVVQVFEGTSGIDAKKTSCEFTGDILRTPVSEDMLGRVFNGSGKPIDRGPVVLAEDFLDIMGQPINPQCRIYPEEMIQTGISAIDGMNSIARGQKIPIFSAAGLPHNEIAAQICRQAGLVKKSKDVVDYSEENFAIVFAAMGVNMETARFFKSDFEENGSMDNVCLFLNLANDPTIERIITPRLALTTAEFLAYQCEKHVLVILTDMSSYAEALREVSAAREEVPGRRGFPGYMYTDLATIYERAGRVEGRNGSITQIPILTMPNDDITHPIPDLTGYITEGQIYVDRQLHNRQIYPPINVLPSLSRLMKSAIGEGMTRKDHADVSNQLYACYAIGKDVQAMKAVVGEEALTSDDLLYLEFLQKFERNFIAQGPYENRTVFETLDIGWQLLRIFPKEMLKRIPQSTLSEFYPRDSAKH

CC(CCC[C@@H](C)[C@H]1CC[C@H]2[C@@H]3[C@H](O)CC4=CC(=O)CC[C@]4(C)[C@H]3CC[C@]12C)C(=O)O (stereo partly drawn) [7HOCA, 7α-hydroxy-3-oxo-4-cholestenoic acid]
VCAM1 expression (VCAM1; 7HOCA 50 μM for 24 hours versus ethanol control): significantly upregulated | adhesion of leukocytes and monocytes to a PAEC monolayer (human PAECs; 7HOCA-treated PAECs versus ethanol control): promoting adhesion | CD11b+ monocyte infiltration into the vascular bed [1]: enhanced | RVSP [1]: increased | VCAM1 expression in pulmonary vessels [1]: enhanced | pulmonary arteriolar remodeling [1]: increased

C[C@H](CCCC(C)(C)O)[C@H]1CC[C@H]2[C@@H]3CC=C4C[C@@H](O)CC[C@]4(C)[C@H]3CC[C@]12C [25HC, 25-hydroxycholesterol]
VCAM1 expression (VCAM1; [7]): similarly upregulated VCAM1 | immune cell adhesion to a PAEC monolayer (human PAECs; [7]): enhanced immune cell adhesion

O=C(NCc1cc(=O)oc2cc(O)c(O)cc12)c1nn(-c2ccccc2)c(=O)c2ccccc12 [958ami]
EC immunoactivation as noted by VCAM1 expression (VCAM1; 958ami 20 μM for 24 hours versus DMSO): decreased EC immunoactivation | EC immunoactivation as noted by immune cell adhesion to a monolayer (human PAECs; 958ami-treated PAECs versus DMSO): decreased EC immunoactivation | number of amplifications per cell (ATP6V1B2-NCOA7 interactions) [2]: significantly induced | CH25H induction (CH25H): prevented induction of CH25H | BA.2 spike pseudotyped virus infection [3]: decrease | CD11b+ monocyte infiltration at the pulmonary vessel [4]: attenuation | CH25H expression in pulmonary vessels [4]: decreased CH25H expression | RVSP [4]: significant reduction | VCAM1 expression at the endothelium [4]: attenuation | pulmonary vessel muscularization [4]: decreased muscularization | right ventricular hypertrophy (Fulton's Index) [4]: significant reduction | hepatic or renal toxicity ([4]; versus vehicle): neither had appreciable hepatic or renal toxicity

O=C(OCc1cc(=O)oc2cc(O)c(O)cc12)c1nn(-c2ccccc2)c(=O)c2ccccc12 [compound 958]
inflammation by ELISA on lung homogenate of IL-1β, TNF-α, and IL-6 (Klebsiella pneumoniae): decreased inflammation | acute lung injury (Klebsiella pneumoniae; H&E after 48 hours of intratracheal infection): improvement of acute lung injury | BA.2 spike pseudotyped virus infection [3]: decrease | mortality (coronavirus): significantly improved mortality | proinflammatory markers (IL-1α, IL-1β, IFN-γ, VCAM1, and ICAM1) in lung tissue (coronavirus): attenuation | viral load in lung tissue (coronavirus): decreased viral load | effect on NCOA7 relative to the other predicted compounds (NCOA7 [5]): activator of NCOA7

N#CCNC(=O)c1ccc(-c2ccnc(Nc3ccc(N4CCOCC4)cc3)n2)cc1 [momelotinib]
IL-1β-mediated upregulation of NCOA7 (NCOA7 [6]): abrogated
